Common to all, as to test: DTP human tumour cell line panel, 48 h
In assay [1] the test system is A549.
Assay [2] concerns HCT-116.
Assay [3] has as its system SK-MEL-5.
Assay [4] relates to EKVX.
Assay [5] concerns HT-29.
The test system of assay [6] is MCF7.
The subject of assay [7] is SK-MEL-2.
In assay [8] the test system is ACHN.
Assay [9] relates to HOP-62.
In assay [10] the test system is SF-539.
Assay [11] deals with UACC-257.
The test system of assay [12] is SF-268.
For assay [13], the system named is MDA-N.
The test system of assay [14] is MDA-MB-231.
The test system of assay [15] is CCRF-CEM.
In assay [16] the test system is SNB-19.
Assay [17] relates to SR.
The test system of assay [18] is RXF 393.
The test system of assay [19] is SK-MEL-28.
The subject of assay [20] is NCI-H460.

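Cells were grown in 96-well plates and exposed to each compound for 48 hours at five concentrations; endpoints were interpolated linearly between bracketing concentrations, or set to the highest concentration if not reached. Here, GI50 denotes the concentration required for 50% inhibition of growth.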 Calls of active or inactive are those of the source. Cut-off read from the data, not from the text of the source: active = GI50 up to about 1.1 µM and inactive = higher.

For the compound `OC12COc3ccccc3C1Oc1ccccc1C2` (centres undefined), the GI50 in assay [1], in [2], in assay [3], in assay [4], in assay [5] and in assay [6] was > 100 µM (inactive) throughout. Besides, the GI50 in [7], in assay [8], in assay [9], in assay [10], in assay [11] and in [12] was > 100 µM (inactive) in each case. Further, the GI50 in [13], in assay [14] and in assay [15] was > 100 µM (inactive) each time.
Regarding `CSC1=NS(=O)(=O)c2cc(C(=O)NN(C)C(=O)c3cc4c(cc3Cl)SC(SC)=NS4(=O)=O)c(Cl)cc2S1`, the GI50 in assay [1], in [2], in assay [16], in assay [3], in [17] and in assay [4] was > 10 µM (inactive) in each case. Besides, the GI50 in assay [18] is > 10 µM (inactive); in assay [5], > 10 µM (inactive); in [19] it was > 10 µM (inactive); in assay [6], 9.75 µM (inactive); in assay [7], > 10 µM (inactive); in [20], > 10 µM (inactive). The GI50 in assay [8], in [9], in assay [10], in assay [11], in assay [12] and in assay [13] was > 10 µM (inactive) each time. In addition, in assay [15], the GI50 is > 10 µM (inactive).
For the compound `N=C(N)NS(=O)(=O)c1ccc(NC(=O)c2cccc3c(O)c4ccccc4nc23)cc1`, the GI50 is > 100 µM (inactive) in assay [1]; > 100 µM (inactive) in assay [2]; 59.4 µM (inactive) in assay [16]; > 100 µM (inactive) in [3]; > 74.8 µM (inactive) in assay [17]; > 100 µM (inactive) in [4]. Further, the GI50 in assay [18] is > 41 µM (inactive); in assay [5] it was > 100 µM (inactive); in [19], > 100 µM (inactive); in [6], > 100 µM (inactive); in assay [7], > 100 µM (inactive); in assay [20] it was > 100 µM (inactive). Further, the GI50 was > 100 µM (inactive) in assay [8]; > 78.5 µM (inactive) in [9]; > 78.3 µM (inactive) in assay [10]; > 100 µM (inactive) in [11]; > 100 µM (inactive) in assay [12]; > 100 µM (inactive) in [14]. The GI50 in assay [15] was 28.9 µM (inactive).
On to `Cc1ccc(S(=O)(=O)C2=Cc3ccccc3C2(O)c2ccccc2)cc1` (centres undefined), for which the GI50 in [1] is 32.2 µM (inactive); in assay [2] it was 33.3 µM (inactive); in assay [16] it was 43.8 µM (inactive); in assay [3] it was 16.6 µM (inactive); in [17], 22.2 µM (inactive); in [4] it was 24.9 µM (inactive). The GI50 was 19.7 µM (inactive) in assay [5]; 16.3 µM (inactive) in assay [19]; 15.4 µM (inactive) in assay [7]; 22.7 µM (inactive) in assay [20]; 34.3 µM (inactive) in [8]; > 10 µM (inactive) in assay [9]. Further, the GI50 is 24 µM (inactive) in [10]; > 10 µM (inactive) in assay [11]; 27.2 µM (inactive) in assay [12]; 18.7 µM (inactive) in [13]; 17.7 µM (inactive) in assay [14]; 15.7 µM (inactive) in [15].
On to `Cc1ccccc1C1OC(=O)c2ccc3ccccc3c21` (centres undefined), for which the GI50 in assay [1] is 5.48 µM (inactive); in assay [2], 2.52 µM (inactive); in assay [16] it was 8.87 µM (inactive); in assay [3], 3.53 µM (inactive); in [17], 0.769 µM (active); in [4] it was 7.4 µM (inactive). The GI50 in [18] was 2.59 µM (inactive); in assay [5], 4.22 µM (inactive); in assay [19], 3.43 µM (inactive); in assay [7], 2.25 µM (inactive); in assay [20], 3.23 µM (inactive); in assay [8], 4.63 µM (inactive). Further, the GI50 in [9] is 0.442 µM (active); in [10], 3.27 µM (inactive); in assay [11], 4.62 µM (inactive); in assay [12] it was 6.97 µM (inactive); in assay [15] it was 4.21 µM (inactive).
For `CSc1ccc(N2C(=O)C3c4[nH]c5ccccc5c4C4CCC(C(C)(C)C)CC4C3C2=O)cc1` (centres undefined), the GI50 in [1] is 15.3 µM (inactive); in [2] it was 5.24 µM (inactive); in assay [16] it was 19.1 µM (inactive); in assay [3] it was 25.8 µM (inactive); in assay [17], 10.2 µM (inactive); in [4], 20.7 µM (inactive). Moreover, the GI50 is 20.3 µM (inactive) in assay [18]; 21.8 µM (inactive) in assay [5]; 13.8 µM (inactive) in [19]; 17.6 µM (inactive) in [7]; 14.1 µM (inactive) in [20]; 13.9 µM (inactive) in [8]. Besides, the GI50 in [9] is 12.2 µM (inactive); in [10] it was 18.3 µM (inactive); in assay [11], 46.8 µM (inactive); in [12], 12.4 µM (inactive); in assay [15], 8.49 µM (inactive).
As for `Nc1nc(N)c(C2=CCNCC2)c(=O)[nH]1`, the GI50 in assay [1], in assay [2], in assay [16], in [3], in [17] and in assay [4] was > 100 µM (inactive) in each case. Further, the GI50 in assay [18], in [5], in assay [19], in [6], in assay [7] and in assay [20] was > 100 µM (inactive) in each case. The GI50 in assay [8], in assay [9], in assay [10], in assay [11], in assay [12] and in assay [14] was > 100 µM (inactive) each time. The GI50 in [15] was > 100 µM (inactive).
As to `CC1=NN(c2nc(N)nc(CCl)n2)CC1`, the GI50 is 57.7 µM (inactive) in assay [1]; 24.5 µM (inactive) in assay [2]; > 100 µM (inactive) in assay [16]; 14.8 µM (inactive) in assay [3]; 20.8 µM (inactive) in assay [17]; 16.1 µM (inactive) in assay [4]. Also, the GI50 in assay [18] was 49.8 µM (inactive); in assay [5], 30.4 µM (inactive); in [19], 22.8 µM (inactive); in assay [6], 38.1 µM (inactive); in assay [7] it was 26.6 µM (inactive); in assay [20], 20.9 µM (inactive). Further, the GI50 in assay [8] is 17.3 µM (inactive); in [9], 11.4 µM (inactive); in [10], 24.5 µM (inactive); in assay [11] it was 69.5 µM (inactive); in assay [12] it was 32.7 µM (inactive); in assay [14], 40 µM (inactive). Further, in [15], the GI50 is 14.9 µM (inactive).
In the case of `COC(=O)[C@H](Cc1ccccc1)NC(=O)N(CCC#N)CCCCN(CCC#N)C(=O)N[C@@H](Cc1ccccc1)C(=O)OC`, the GI50 in [1] is > 100 µM (inactive); in [2] it was > 100 µM (inactive); in assay [16], > 100 µM (inactive); in [3] it was > 100 µM (inactive); in assay [4] it was > 100 µM (inactive); in assay [18], > 58.1 µM (inactive). The GI50 in assay [19] is > 100 µM (inactive); in assay [6], > 100 µM (inactive); in assay [7], > 100 µM (inactive); in assay [20], > 81.8 µM (inactive); in [8], > 100 µM (inactive); in assay [9], > 100 µM (inactive). Further, the GI50 in [11], in [12], in [13] and in [14] was > 100 µM (inactive) throughout.
For `COc1ccc(CCN(C)C(=O)CC(C#N)(c2ccccc2)c2ccc(OC)c(OC)c2)cc1OC` (centres undefined), the GI50 in assay [1] was > 100 µM (inactive); in assay [2] it was > 100 µM (inactive); in assay [16], > 100 µM (inactive); in assay [3], 98.4 µM (inactive); in [4], > 100 µM (inactive); in assay [18], > 86.5 µM (inactive). The GI50 in [5], in assay [19], in assay [6], in assay [7], in assay [20] and in assay [8] was > 100 µM (inactive) each time. The GI50 in assay [9], in assay [10], in [11], in [12], in assay [13] and in assay [15] was > 100 µM (inactive) throughout.
On to `COC(=O)Cc1nc2ccccc2o1`, for which the GI50 in [1] is 74.6 µM (inactive); in assay [2], 91.2 µM (inactive); in assay [16], > 100 µM (inactive); in [3], 50.8 µM (inactive); in [17] it was > 100 µM (inactive); in assay [4], > 100 µM (inactive). Besides, the GI50 in [18] is > 100 µM (inactive); in assay [5], 90.8 µM (inactive); in assay [19], > 100 µM (inactive); in assay [7] it was 65.8 µM (inactive); in [20] it was 80.5 µM (inactive); in [8], 41.7 µM (inactive). In addition, the GI50 in assay [9] was > 100 µM (inactive); in assay [10], 72.3 µM (inactive); in [11] it was 47 µM (inactive); in assay [12] it was > 100 µM (inactive); in assay [15], 44.3 µM (inactive).
